Source: article PMC12441834, “Highly Potent and Subtype-Selective Sperm-Specific Potassium Channel SLO3 Inhibitors Display High Tissue Exposure in the Murine Female Reproductive Tract” (ACS Pharmacology & Translational Science, 2025)
Where “and” joins values, the source holds several entries; their conditions need not be identical. Equal values may be shown once. Read-outs that look alike come from different tables or passages of the source.

How the values were obtained:
hERG = biological target: T1, hERG (Homo sapiens, UniProt Q12809); assay: hERG patch clamp electrophysiology (HEK-293-hERG); type: cell-based; details: for IC50: whole-cell patch clamp, HEK-293-hERG; for selectivity ratio: pH 7.35, hERG IC50 / hSLO3 IC50, read-out: hERG selectivity [fold] (SLO3 versus hERG)
T1 construct: expressed in transfected cells
Description: Whole-cell patch-clamp electrophysiology was used to record hERG currents from a stably transfected monoclonal cell line expressing human hERG. The HEK-293-hERG cell line was generously provided by Dr. David Weaver (Vanderbilt University). Cells were cultured in a 5% CO2 incubator at 37 °C, dissociated with 0.25% Trypsin-EDTA, and seeded onto 12 mm circular coverslips (Electron Microscopy Sciences, PA, USA) for same-day whole-cell patch-clamp recordings. hERG currents were recorded at room temperature by using an AxoPatch 200B amplifier with Clampex 10.7 software (Molecular Devices, USA). The voltage-clamp protocol consisted of a 4-s step to +30 mV from a −80 mV holding potential, followed by a 4-s step to −40 mV, repeated every 10 s. Data were sampled at 5 kHz and filtered at 1 kHz. Patch pipettes, pulled from 1.5 mm OD thin-walled capillaries (Warner Instruments, MA, USA) using a Sutter P-1000 puller (Sutter Instrument, CA, USA), had resistances of 2–3 MΩ when filled with intracellular solution containing (mM): 135 KCl, 10 HEPES, 1 EGTA, 2 MgCl2, 2 Na2ATP (pH 7.35, adjusted with KOH). The extracellular solution contained (mM): 135 NaCl, 5 KCl, 2 CaCl2, 1 MgCl2, 5 Glucose, 10 HEPES, and 10 Sucrose (pH 7.35, adjusted with NaOH). After establishing stable baseline hERG currents, cells were perfused with compounds at concentrations of 0.03–30 μM until response saturation (typically 2–8 min). Recordings concluded with a 10 μM Quinidine solution to isolate Quinidine-sensitive currents, with compound responses expressed as fractions of this current. Peak “tail” current amplitudes at the beginning of −40 mV steps were analyzed using Clampfit 11.2 (Molecular Devices). IC50 values were calculated by fitting the Hill equation to concentration–response curves (CRCs) using the built-in Y = Bottom + (Top – Bottom)/(1 + (IC50/X)^HillSlope) model (nonlinear regression fit: [Inhibitor] vs response – Variable slope (four parameters)) in GraphPad Prism 10.4 (GraphPad Software).

Kinetic solubility = type: physicochemical; details: aqueous buffer, kinetic from dmso stock; pH 2.2; pH 6.8; read-out: Kinetic Solubility (pH 2.2; pH6.8)
[1] = Intrinsic clearance in liver microsomes; type: in vitro ADME, human; details: for Human CLhep, % Hepatic blood flow: human liver microsomes; for CLhep predicted at 1 μM: human, liver microsomes, pH 7.4, human liver microsomes, read-out: Human CLhep (in vitro hepatic clearance from microsomal CLint)
Description: (§1) The in vitro intrinsic clearance (CLint) was investigated in commercially obtained hepatic microsomes from mouse, rat, and human donors using the substrate depletion (i.e., loss-of-parent vs time, or half-life (t 1/2) method) approach with analyte detection via liquid chromatography–tandem mass spectrometry (LC-MS/MS). For each species, mean %parent remaining values at each time point were calculated from replicate raw data (analyte:IS peak area ratios) and used to determine in vitro t 1/2 and CLint.
(§2) Experiments were carried out by using a robot-assisted liquid handler (Bravo with BenchCell, Agilent). The compound was incubated (1 μM final concentration) in buffer (100 mM potassium phosphate pH 7.4 with 3 mM MgCl2) containing hepatic microsomes (0.5 mg/mL final concentration) from each species, discretely, at 37 °C under constant orbital shaking. After 5 min (preincubation), reactions were initiated by the addition of nicotinamide adenine dinucleotide phosphate (NADPH, 1 mM final concentration). At selected time intervals (0, 3, 7, 15, 25, and 45 min) postaddition of NADPH, aliquots (50 μL) were taken and placed into a 96-shallow-well plate containing ice-cold acetonitrile (150 μL) with carbamazepine (IS, 50 nM). The plates were then centrifuged (3000 rcf at 4 °C) for 10 min. The supernatants were transferred to a new 96-shallow-well daughter plate and diluted (1:1 v/v) with water (Milli-Q filtered). The plates were then sealed for preparation for LC-MS/MS analysis (see below).
(§3) Analyte:IS peak area ratios generated by LC-MS/MS were used to construct natural log-transformed %parent remaining vs time plots (using t = 0 min post-NADPH addition sample data as the starting point set to 100%). In vitro compound t 1/2 values were calculated by using the following equation: t1/2=ln(2)/k where k is the slope from the linear regression analysis of the natural log-transformed data (using means from all replicates at each time point). Resulting t 1/2 values were then used to calculate hepatic CLint values according to the following equation and with the use of species-specific scale-up factors for liver weight (grams) per total body weight (kg): CLint=0.693/invitrot1/2×1mLincubation/0.5mgmicrosomes×45mgmicrosomes/1gramliver×garamliver/kgbodywt
(§4) ^aScale-up factors used are 45 (rat) and 20 (human).
(§5) Predicted hepatic clearance (CLhep) was calculated by using the following equation: CLhep=Qh×CLint/Qh+CLint
(§6) Q h represents hepatic blood flow (mL/min/kg): 21 for humans, 70 for rats, and 90 for mouse.

[2] = Intrinsic clearance in liver microsomes; type: in vitro ADME, rat; details: for Rat CLhep, % Hepatic blood flow: rat liver microsomes; for CLhep predicted at 1 μM: rat, liver microsomes, pH 7.4, rat liver microsomes, read-out: Rat CLhep (in vitro hepatic clearance from microsomal CLint)
Description: as §1, §2, §3, §4, §5, §6

[3] = Intrinsic clearance in liver microsomes; type: in vitro ADME, mouse; details: for Mouse CLhep, % Hepatic blood flow: mouse liver microsomes; for CLhep predicted at 1 μM: mouse, liver microsomes, pH 7.4, mouse liver microsomes, read-out: Mouse CLhep (in vitro hepatic clearance from microsomal CLint)
Description: as §1, §2, §3, §4, §5, §6

CYP2D6 = CYP2D6 (Homo sapiens, UniProt P10635); assay: CYP450 inhibition; type: in vitro ADME; details: read-out: CYP450 Inhibition, 2D6
[4] = Multispecies hepatocyte MetID; type: in vitro ADME, mouse; details: 4 h incubation with hepatocytes, 10 μM
Adrenergic α1B = Adrenergic α1B (Homo sapiens, UniProt P35368); assay: LeadProfilingScreen radioligand binding
Adrenergic α2A = Adrenergic α2A (Homo sapiens, UniProt P08913); assay: LeadProfilingScreen radioligand binding
Adrenergic β2 = Adrenergic β2 (Homo sapiens, UniProt P07550); assay: LeadProfilingScreen radioligand binding
Bradykinin B1 = Bradykinin B1 (Homo sapiens, UniProt P46663); assay: LeadProfilingScreen radioligand binding
Estrogen Erα = Estrogen Erα (Homo sapiens, UniProt P03372); assay: LeadProfilingScreen radioligand binding
[5] = test system: Glutamate, NMDA, Phencyclidine; assay: LeadProfilingScreen radioligand binding; design: species or system rat
Histamine H2 = Histamine H2 (Homo sapiens, UniProt P25021); assay: LeadProfilingScreen radioligand binding
[6] = biological target: Transporter, Dopamine (DAT) (Homo sapiens, UniProt Q01959); assay: LeadProfilingScreen radioligand binding
[7] = biological target: Transporter, Norepinephrine (NET) (Homo sapiens, UniProt P23975); assay: LeadProfilingScreen radioligand binding
[8] = human, HEK-293 cells stably expressing hERG

T1 sequence (Q12809 whole entry): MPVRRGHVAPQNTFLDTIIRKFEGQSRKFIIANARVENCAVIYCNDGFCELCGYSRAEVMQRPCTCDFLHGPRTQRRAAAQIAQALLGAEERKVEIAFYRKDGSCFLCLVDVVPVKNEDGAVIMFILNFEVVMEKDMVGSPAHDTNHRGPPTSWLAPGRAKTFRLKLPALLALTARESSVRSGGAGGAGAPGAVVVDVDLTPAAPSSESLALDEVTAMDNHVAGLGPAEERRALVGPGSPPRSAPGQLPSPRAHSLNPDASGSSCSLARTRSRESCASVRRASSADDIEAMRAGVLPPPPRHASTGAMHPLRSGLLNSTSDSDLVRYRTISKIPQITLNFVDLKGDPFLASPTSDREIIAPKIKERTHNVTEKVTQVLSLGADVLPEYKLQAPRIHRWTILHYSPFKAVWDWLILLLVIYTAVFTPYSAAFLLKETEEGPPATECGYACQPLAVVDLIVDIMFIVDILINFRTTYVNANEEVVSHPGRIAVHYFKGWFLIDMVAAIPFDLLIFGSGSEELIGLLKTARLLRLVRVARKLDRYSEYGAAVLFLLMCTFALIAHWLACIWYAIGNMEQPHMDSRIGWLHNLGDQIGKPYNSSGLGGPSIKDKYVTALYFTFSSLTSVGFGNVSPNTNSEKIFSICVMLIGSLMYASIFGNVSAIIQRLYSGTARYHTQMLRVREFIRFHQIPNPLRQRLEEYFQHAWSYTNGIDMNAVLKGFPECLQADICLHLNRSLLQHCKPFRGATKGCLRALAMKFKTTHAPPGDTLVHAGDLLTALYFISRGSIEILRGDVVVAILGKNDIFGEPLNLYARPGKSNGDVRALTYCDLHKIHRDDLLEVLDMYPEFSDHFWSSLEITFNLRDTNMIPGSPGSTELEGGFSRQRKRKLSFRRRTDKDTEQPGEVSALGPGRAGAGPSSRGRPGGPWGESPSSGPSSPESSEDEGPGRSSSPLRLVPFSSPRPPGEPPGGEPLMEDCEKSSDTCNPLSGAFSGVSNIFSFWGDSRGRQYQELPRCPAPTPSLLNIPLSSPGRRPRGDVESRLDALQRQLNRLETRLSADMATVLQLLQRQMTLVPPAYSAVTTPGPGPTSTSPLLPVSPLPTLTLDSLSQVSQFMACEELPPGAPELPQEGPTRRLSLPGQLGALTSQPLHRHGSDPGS
Chain of Transporter, Dopamine (DAT) (Q01959 whole entry): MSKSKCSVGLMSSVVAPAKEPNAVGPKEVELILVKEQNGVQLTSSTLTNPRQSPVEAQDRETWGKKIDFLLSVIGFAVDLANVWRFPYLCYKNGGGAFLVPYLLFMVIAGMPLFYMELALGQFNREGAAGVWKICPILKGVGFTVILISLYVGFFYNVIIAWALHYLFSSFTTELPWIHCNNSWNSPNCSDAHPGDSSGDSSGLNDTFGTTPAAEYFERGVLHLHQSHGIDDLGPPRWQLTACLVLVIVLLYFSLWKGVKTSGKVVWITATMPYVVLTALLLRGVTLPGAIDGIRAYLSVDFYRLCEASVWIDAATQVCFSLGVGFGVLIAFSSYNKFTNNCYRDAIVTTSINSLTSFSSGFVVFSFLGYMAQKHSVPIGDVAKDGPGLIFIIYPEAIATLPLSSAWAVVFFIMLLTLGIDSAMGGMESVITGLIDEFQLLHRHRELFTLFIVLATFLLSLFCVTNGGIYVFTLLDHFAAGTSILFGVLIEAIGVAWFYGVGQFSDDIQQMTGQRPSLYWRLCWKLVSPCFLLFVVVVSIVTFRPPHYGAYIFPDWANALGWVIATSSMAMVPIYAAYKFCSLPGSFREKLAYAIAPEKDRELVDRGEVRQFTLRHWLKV
Chain of Estrogen Erα (P03372 whole entry): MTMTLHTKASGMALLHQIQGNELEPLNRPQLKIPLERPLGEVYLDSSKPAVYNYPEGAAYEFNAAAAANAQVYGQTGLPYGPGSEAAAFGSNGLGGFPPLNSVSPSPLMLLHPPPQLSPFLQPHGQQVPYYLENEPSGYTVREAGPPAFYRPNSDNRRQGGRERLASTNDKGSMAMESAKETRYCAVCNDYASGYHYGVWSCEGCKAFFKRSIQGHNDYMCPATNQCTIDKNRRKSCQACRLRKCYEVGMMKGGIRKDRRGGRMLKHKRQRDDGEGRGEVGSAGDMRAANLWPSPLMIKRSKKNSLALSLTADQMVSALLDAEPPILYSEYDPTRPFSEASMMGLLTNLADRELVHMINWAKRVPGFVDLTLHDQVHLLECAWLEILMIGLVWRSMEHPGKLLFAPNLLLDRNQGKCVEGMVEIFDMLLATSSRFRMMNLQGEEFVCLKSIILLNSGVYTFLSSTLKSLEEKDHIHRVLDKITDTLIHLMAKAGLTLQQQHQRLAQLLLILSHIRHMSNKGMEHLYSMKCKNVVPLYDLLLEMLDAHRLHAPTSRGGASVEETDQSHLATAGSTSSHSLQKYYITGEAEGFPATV
Chain of Transporter, Norepinephrine (NET) (P23975 whole entry): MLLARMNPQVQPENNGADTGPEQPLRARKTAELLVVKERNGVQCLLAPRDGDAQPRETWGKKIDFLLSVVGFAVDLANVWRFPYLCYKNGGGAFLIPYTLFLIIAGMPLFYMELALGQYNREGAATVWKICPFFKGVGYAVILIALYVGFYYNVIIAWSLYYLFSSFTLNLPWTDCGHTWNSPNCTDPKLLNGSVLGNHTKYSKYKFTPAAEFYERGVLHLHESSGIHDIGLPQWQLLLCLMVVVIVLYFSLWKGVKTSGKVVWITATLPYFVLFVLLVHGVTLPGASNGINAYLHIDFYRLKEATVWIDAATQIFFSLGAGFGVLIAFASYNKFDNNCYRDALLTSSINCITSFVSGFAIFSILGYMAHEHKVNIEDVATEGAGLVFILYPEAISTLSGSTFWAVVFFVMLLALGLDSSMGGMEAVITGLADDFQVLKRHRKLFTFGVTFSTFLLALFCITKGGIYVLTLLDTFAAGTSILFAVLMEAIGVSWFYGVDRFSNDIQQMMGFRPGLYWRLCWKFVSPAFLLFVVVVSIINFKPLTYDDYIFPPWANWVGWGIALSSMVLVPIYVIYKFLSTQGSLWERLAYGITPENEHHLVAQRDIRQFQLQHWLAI
Chain of Bradykinin B1 (P46663 whole entry): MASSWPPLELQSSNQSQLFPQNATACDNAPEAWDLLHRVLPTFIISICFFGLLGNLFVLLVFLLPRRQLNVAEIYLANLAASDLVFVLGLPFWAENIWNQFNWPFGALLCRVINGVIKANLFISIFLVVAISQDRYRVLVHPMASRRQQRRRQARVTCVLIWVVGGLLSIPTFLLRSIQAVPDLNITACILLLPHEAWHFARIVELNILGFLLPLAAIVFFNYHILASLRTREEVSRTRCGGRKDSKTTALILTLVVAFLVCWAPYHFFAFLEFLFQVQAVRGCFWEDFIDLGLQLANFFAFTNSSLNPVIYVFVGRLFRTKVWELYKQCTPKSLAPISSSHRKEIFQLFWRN
Chain of Histamine H2 (P25021 whole entry): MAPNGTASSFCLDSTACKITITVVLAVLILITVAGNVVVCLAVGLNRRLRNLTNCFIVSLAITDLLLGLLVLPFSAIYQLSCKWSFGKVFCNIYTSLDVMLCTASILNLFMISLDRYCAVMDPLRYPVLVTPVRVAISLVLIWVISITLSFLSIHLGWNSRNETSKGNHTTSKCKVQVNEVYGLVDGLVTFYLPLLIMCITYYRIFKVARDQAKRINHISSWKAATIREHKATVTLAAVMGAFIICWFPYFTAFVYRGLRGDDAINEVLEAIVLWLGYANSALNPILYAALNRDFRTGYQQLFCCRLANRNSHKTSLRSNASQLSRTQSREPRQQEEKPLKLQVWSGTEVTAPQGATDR
Chain of Adrenergic α1B (P35368 whole entry): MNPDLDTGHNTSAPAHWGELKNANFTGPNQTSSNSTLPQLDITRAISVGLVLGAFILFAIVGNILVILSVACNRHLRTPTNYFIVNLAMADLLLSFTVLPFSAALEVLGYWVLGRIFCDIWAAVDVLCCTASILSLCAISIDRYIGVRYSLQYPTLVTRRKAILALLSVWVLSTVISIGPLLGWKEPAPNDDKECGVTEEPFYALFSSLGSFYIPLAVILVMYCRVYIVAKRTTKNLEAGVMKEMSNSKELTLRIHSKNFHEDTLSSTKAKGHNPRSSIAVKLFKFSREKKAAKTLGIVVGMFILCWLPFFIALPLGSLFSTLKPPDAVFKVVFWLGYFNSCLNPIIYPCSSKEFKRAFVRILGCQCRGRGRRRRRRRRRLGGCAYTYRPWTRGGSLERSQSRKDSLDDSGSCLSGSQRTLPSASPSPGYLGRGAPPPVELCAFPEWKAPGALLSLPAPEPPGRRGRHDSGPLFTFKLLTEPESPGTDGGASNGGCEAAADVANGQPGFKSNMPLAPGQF
Chain of CYP2D6 (P10635 whole entry, species assumed): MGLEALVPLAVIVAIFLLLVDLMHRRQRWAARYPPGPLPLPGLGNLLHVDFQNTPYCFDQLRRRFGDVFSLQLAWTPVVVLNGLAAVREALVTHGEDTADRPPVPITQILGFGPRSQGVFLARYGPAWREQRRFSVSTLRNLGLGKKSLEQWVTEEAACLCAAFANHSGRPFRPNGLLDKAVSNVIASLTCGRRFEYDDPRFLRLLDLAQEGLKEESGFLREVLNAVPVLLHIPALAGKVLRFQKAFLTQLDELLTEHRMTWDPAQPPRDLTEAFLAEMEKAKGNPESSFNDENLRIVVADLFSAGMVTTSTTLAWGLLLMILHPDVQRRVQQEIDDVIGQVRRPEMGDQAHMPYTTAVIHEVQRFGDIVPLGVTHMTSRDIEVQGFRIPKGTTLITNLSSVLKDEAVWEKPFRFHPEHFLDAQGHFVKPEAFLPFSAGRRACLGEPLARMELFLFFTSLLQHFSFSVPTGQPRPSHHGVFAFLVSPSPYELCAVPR

SMILES	IC50 (hERG) [µM]	solubility kinetic (Kinetic solubility) [µM]	Human CLhep, % Hepatic blood flow [1] [%]	CLhep predicted at 1 μM [1] [mL/min/kg]	Rat CLhep, % Hepatic blood flow [2] [%]	CLhep predicted at 1 μM [2] [mL/min/kg]	Mouse CLhep, % Hepatic blood flow [3] [%]	CLhep predicted at 1 μM [3] [mL/min/kg]	IC50 (CYP2D6) [µM]	% of Parent Related Material, Mouse [4]	inhibition at 10 µM (Adrenergic α1B) [%]	inhibition at 10 µM (Adrenergic α2A) [%]	inhibition at 10 µM (Adrenergic β2) [%]	inhibition at 10 µM (Bradykinin B1) [%]	inhibition at 10 µM (Estrogen Erα) [%]	% inhibition at 10 μM [5] [%]	inhibition at 10 µM (Histamine H2) [%]	inhibition at 10 µM [6] [%]	inhibition at 10 µM [7] [%]	selectivity ratio (hERG; [8])	also measured
Cc1cc(Cl)cc2sc(O[C@H]3CCN(C(=O)CCCS(=O)(=O)c4cccc(Br)c4)C[C@H]3F)nc12 [VU6047606]	12	< 0.85	74	> 15	71	> 46	93	> 60	> 30	84.99% and > 82%	12	-4	5	-5	6	6	-24	18	44		IC50 (hERG; human, HEK-293 cells stably expressing hERG, pH 7.35): 12.7 µM
O=C(c1ccc(OCc2ccc(OC(F)(F)F)cc2)cc1)N1CCN(c2ccc(C(F)(F)F)cn2)CC1 [VU6032735]	28.3	< 0.95	23	4.8	23	16.2	56	50.1	> 30	> 98%	-5	-3	5	4	11	8	6	26	30	172	
Cc1cc(Cl)cc2sc(O[C@@H]3CCN(C(=O)CCCS(=O)(=O)c4cccc(Br)c4)C[C@@H]3F)nc12 [VU6047608]		< 0.85	82	17.1	72	50.5	95	85.9													
Cc1cc(Cl)cc2sc(OC3CCN(C(=O)CCCS(=O)(=O)c4cccc(Br)c4)CC3F)nc12 (centres unmarked) [VU6045330]	73.3																			555	
Cc1cc(Cl)cc2sc(O[C@H]3CCN(C(=O)CCCS(=O)(=O)c4cccc(Br)c4)C[C@@H]3F)nc12 [VU6047609]	56	< 0.85	75	15.8	89	62.4	97	87.6													
Cc1cc(Cl)cc2sc(O[C@@H]3CCN(C(=O)CCCS(=O)(=O)c4cccc(Br)c4)C[C@H]3F)nc12 [VU6047607]	17	< 0.85	82	17.2	76	53.5	98	88.1													
